According to patent publication US20120107836A1, “DEVELOPMENT OF FLUORESCENTLY P-LOOP LABELLED KINASES FOR SCREENING OF INHIBITORS” (priority 2009, published 2012):

What was measured:
p38α = target: T1, p38α (Homo sapiens, UniProt Q16539, C119S/C162S/F327L/Y35C); assay: Endpoint fluorescence binding measurements with acrylodan-labelled p38α (glycine-rich loop / P-loop labelled, Y35C); conditions: fluorescence response of acrylodan-labelled p38α
T1 construct: His-tag (N, cleaved yes); made in house; host or cells: E. coli BL21(DE3)
T1 sequence (Q16539 whole entry Y35C/C119S/C162S/F327L): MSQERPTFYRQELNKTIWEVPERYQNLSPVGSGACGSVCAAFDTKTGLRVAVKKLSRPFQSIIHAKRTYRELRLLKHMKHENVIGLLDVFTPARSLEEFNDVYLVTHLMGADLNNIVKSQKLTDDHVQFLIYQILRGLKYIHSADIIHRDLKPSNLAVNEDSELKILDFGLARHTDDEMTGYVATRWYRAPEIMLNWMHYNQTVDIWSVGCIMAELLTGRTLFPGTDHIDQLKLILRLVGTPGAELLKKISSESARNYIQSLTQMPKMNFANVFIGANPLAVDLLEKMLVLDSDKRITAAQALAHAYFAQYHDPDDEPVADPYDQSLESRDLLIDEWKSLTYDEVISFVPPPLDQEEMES
Source text: For acrylodan-labelled p38α, ratiometric fluorescence values (R=Iλ512/Iλ475) enabled reliable binding curves of detected compounds to be plotted, allowing for direct determination of the Kd of ligand binding. It should be noted that binding modes of detected molecules can initially be assessed in HTS formats by measuring plates from primary and/or secondary screens at different time points. Compounds that change the maximum ratiometric signal or Kd over time are likely to be Type II/III inhibitors. Alternatively, kinetics of the association (kon) and dissociation (koff) of selected compounds can be determined using cuvettes. To determine kon, a mini stir bar was placed in the bottom of each cuvette to ensure rapid mixing as inhibitor was delivered through the injection port located above the cuvette. […] Nearly instantaneous binding kinetics (<5 s) are characteristic of Type I inhibitors, while slower kinetics (>10 s) indicate the slower binding of Type II or Type III inhibitors to the DFG-out conformation. Following binding, koff was determined by adding a 10-fold excess of unlabelled kinase to shift the binding equilibrium away from the labelled kinase. Addition of excess unlabelled kinase causes the inhibitor to redistribute and dissociate from acrylodan-labelled p38α, resulting in a recovery of the fluorescence signal.

MKK7 = target: T2, MKK7 (Homo sapiens, UniProt O14733, C202S/C260S/C280S); assay: Real-time and endpoint fluorescence measurements with glycine-rich loop acrylodan-labelled MKK7 kinase domain; format: binding
T2 sequence (O14733 101-408 C202S/C260S/C280S): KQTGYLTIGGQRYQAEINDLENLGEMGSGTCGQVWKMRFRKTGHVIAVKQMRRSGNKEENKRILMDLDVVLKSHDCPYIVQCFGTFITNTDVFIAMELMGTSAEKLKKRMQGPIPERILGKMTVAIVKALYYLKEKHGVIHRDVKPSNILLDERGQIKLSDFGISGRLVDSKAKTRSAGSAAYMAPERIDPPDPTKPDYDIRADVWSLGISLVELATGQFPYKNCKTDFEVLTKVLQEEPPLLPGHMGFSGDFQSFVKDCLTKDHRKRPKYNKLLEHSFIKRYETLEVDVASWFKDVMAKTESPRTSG
Experimental: FIG. 8. Real-time and endpoint fluorescence measurements of a Type II and Type I ligands using glycine-rich loop labelled MKK7. […] Real-time kinetic measurements and detection of binding and dissociation of K252a.
Therefore, the Kd of a Type I inhibitor (K252a) to P-loop labelled MKK7 was measured. […] FIG. 8C highlights the real-time kinetic measurements and detection of binding and dissociation of K252a.

Compound: NC(=O)c1c(OCc2c(F)cc(Br)cc2F)nsc1NC(=O)NCCCCN1CCCC1 [CP547632]
- detection of ligand binding by the P-loop labelled p38α assay (p38α): detected

Compound: COC(=O)[C@@]1(O)C[C@H]2O[C@]1(C)n1c3ccccc3c3c4c(c5c6ccccc6n2c5c31)C(=O)NC4 [K252a]
- Kd (MKK7): 38 nM
- kinetics of binding and dissociation (MKK7; real-time measurements, P-loop labelled MKK7): fast

Compound: CNC(=O)c1cc(Oc2ccc(NC(=O)Nc3ccc(Cl)c(C(F)(F)F)c3)cc2)ccn1 [sorafenib]
- detection of ligand binding by P-loop labelled MKK7 (MKK7; negative controls, up to 10 μM): not detected up to 10 uM
